According to patent US8785459B2, “Quinazoline compounds as kinase inhibitors” (Development Center for Biotechnology, priority 2011, dated 2014):
Read-outs that look alike come from different tables or passages of the source.

Tests used:
Type in all cases: biochemical
B-Raf = B-Raf (Homo sapiens (Human), UniProt P15056); assay: Raf kinase assay (B-Raf), [33P] incorporation into MEK1(K97R); conditions: for inhibition at 1 µM: read-out: B-Raf inhibition at 1.0 μM
Method: (§1) A. Raf Kinase Assays (B-Raf, B-raf (V600E), and C-Raf)
(§2) Inhibition of kinase activity by test compound disclosed herein was estimated by quantifying the amount of [^33P] incorporation of substrate in the presence of test compound. Standard assay conditions were 2 ng of recombinant C-Raf or 5 ng of recombinant B-Raf or 5 ng of recombinant B-Raf (V600E) kinase (Upstate Biotechnology) with 500 ng MEK1(K97R) in assay buffer {8 μM ATP, 0.5 μCi [^33P]ATP (specific activity 3000 Ci/mmol, PerkinElmer), 50 mM Tris/HCl (pH7.5), and 1 mM EGTA, 1 mM Na3VO4, 1% 2-mercaptoethanol, 0.1% Brij 35, and 0.2 mg/ml BSA} at a final volume of 25 μL. Reactions were incubated at 30° C. for 30 min and stopped by adding 3% phosphoric acid, harvested onto a 96-well GF/B UniFilter (PerkinElmer) using a unifilter harvester (PerkinElmer), and counted with a TopCount microplate scintillation counter (PerkinElmer). The IC50 values of inhibitors were determined after carrying out assays at 3-fold serially diluted concentrations of each compound in duplication. The results were analyzed using linear regression software (GraphPad Prism 4; GraphPad Software Inc.). Inhibition of B-Raf, B-raf (V600E), and C-Raf kinases by various compounds listed in Table 1 are summarized and shown in Table 3 below. IC50 value is defined as the concentration of the test compound which achieves a half-maximal inhibition of the kinase activity.

C-Raf = C-Raf (Homo sapiens (Human), UniProt P04049); assay: Raf kinase assay (C-Raf), [33P] incorporation into MEK1(K97R)
C-Raf, sequence (P04049 whole entry): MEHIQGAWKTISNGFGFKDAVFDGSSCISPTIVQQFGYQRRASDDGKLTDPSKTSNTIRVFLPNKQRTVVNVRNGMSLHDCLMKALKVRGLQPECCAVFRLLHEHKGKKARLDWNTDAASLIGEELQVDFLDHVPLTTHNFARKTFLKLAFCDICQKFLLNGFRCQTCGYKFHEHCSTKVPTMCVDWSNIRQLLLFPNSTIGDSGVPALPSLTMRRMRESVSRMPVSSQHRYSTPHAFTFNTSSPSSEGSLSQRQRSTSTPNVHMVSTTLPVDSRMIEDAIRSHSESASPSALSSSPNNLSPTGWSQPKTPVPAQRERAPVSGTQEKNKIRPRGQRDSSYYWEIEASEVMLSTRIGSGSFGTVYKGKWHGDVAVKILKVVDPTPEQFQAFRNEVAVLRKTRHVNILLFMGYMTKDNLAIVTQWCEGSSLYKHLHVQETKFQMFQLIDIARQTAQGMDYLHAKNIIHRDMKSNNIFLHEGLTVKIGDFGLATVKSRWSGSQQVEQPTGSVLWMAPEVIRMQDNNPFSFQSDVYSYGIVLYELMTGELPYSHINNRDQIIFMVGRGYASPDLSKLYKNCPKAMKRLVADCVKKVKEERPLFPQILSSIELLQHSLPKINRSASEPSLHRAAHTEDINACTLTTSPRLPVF
Method: as §1, §2

B-Raf (V600E) = B-Raf (V600E) (Homo sapiens (Human), UniProt P15056, V600E); assay: Raf kinase assay (B-Raf (V600E)), [33P] incorporation into MEK1(K97R)
B-Raf (V600E), sequence (P15056 whole entry V600E): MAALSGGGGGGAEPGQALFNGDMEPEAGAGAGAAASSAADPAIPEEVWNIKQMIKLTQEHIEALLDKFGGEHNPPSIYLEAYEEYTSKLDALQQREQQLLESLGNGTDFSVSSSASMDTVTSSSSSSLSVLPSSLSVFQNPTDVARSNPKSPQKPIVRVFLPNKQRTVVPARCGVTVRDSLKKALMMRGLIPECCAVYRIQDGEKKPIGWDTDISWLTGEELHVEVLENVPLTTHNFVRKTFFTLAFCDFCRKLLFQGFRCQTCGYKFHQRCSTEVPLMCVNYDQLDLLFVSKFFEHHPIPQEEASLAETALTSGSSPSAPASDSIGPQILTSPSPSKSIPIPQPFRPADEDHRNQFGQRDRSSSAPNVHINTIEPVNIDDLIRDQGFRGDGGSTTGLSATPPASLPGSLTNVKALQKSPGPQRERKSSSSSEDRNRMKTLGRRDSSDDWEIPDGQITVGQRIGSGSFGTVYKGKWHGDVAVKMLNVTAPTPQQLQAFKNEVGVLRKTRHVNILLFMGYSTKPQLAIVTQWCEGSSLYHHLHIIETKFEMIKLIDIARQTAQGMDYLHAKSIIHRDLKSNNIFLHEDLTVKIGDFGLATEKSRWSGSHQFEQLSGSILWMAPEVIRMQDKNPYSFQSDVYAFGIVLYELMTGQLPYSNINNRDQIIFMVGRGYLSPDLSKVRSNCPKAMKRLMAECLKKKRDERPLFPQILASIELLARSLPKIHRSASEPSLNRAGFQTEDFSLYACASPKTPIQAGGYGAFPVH
Method: as §1, §2

B-Raf, sequence (P15056 whole entry): as the sequence (P15056 whole entry V600E) above, with E600V counted along it

Row | SMILES | inhibition at 1 µM (B-Raf; 1.0 μM compound) | other results
1 | COc1cc(-c2ccc3ncnc(Nc4ccc(C(N)=O)cc4)c3c2)ccc1O [Compound 47, 4-(6-(4-hydroxy-3-methoxyphenyl)quinazolin-4-ylamino)benzamide] | 37.8% | –
2 | COc1cc(-c2ccc3ncnc(Nc4cccc5[nH]nnc45)c3c2)ccc1O [Compound 82, 4-(4-(1H-benzo[d][1,2,3]triazol-4-ylamino)quinazolin-6-yl)-2-methoxyphenol] | 58% | IC50 (B-Raf): 668 nM; IC50 (C-Raf): 1270 nM; IC50 (B-Raf (V600E)): 702 nM
3 | COc1cc(-c2ccc3ncnc(Nc4ccc(F)c(NS(C)(=O)=O)c4)c3c2)ccc1O [Compound 130, N-(2-fluoro-5-(6-(4-hydroxy-3-methoxyphenyl)quinazolin-4-ylamino)phenyl)methanesulfonamide] | 44.1% | –
4 | COc1cccc(-c2ccc3nccc(Nc4cccc5[nH]ncc45)c3c2)c1 [Compound 123, N-(1H-indazol-4-yl)-6-(3-methoxyphenyl)quinolin-4-amine] | 80.3% | IC50 (B-Raf): 231 nM; IC50 (C-Raf): 688 nM; IC50 (B-Raf (V600E)): 263 nM
5 | Nc1ccc(-c2ccc3ncnc(Nc4cccc5[nH]ncc45)c3c2)cc1 [Compound 69, 6-(4-aminophenyl)-N-(1H-indazol-4-yl)quinazolin-4-amine] | 75% | IC50 (B-Raf): 260 nM; IC50 (C-Raf): 957 nM; IC50 (B-Raf (V600E)): 342 nM
6 | COc1cc(-c2ccc3ncnc(Nc4ccccc4C(=O)O)c3c2)ccc1O [Compound 50, 2-(6-(4-hydroxy-3-methoxyphenyl)quinazolin-4-ylamino)benzoic acid] | 15.6% | –
7 | COc1cc(-c2ccc3nccc(Nc4ccc(F)c(NS(C)(=O)=O)c4)c3c2)ccc1O [Compound 145, N-(2-fluoro-5-(6-(4-hydroxy-3-methoxyphenyl)quinolin-4-ylamino)phenyl)methanesulfonamide] | 7.5% | –
8 | COc1cc(-c2ccc3ncnc(Nc4cccc(NC(C)=O)c4)c3c2)ccc1O [Compound 44, N-(3-(6-(4-hydroxy-3-methoxyphenyl)quinazolin-4-ylamino)phenyl)acetamide] | 65.3% | IC50 (B-Raf): 489 nM; IC50 (C-Raf): 685 nM; IC50 (B-Raf (V600E)): 382 nM
9 | COc1cc(-c2ccc3ncnc(Nc4ccc(OC)c(OC)c4)c3c2)ccc1O [Compound 13, 4-(4-(3,4-dimethoxyphenylamino)quinazolin-6-yl)-2-methoxyphenol] | 7.7% | –
10 | COc1cc(-c2ccc3ncnc(Nc4cc(O)ccc4OC)c3c2)ccc1O [Compound 55, 4-(4-(5-hydroxy-2-methoxyphenylamino)quinazolin-6-yl)-2-methoxyphenol] | 38.1% | –
11 | CCS(=O)(=O)Nc1ccc(-c2ccc3ncnc(Nc4cccc(NS(=O)(=O)CC)c4)c3c2)cc1 [Compound 26, N-(3-(6-(4-(ethylsulfonamido)phenyl)quinazolin-4-ylamino)phenyl)ethanesulfonamide] | 45.7% | –
12 | COc1cc(-c2ccc3ncnc(Nc4c(F)ccc5[nH]ncc45)c3c2)ccc1O [Compound 149, 4-(4-(5-fluoro-1H-indazol-4-ylamino)quinazolin-6-yl)-2-methoxyphenol] | – | B-Raf inhibition at 1.0 μM (B-Raf; 1.0 μM compound): 15.2%
13 | COc1ccc(C(=O)O)c(Nc2ncnc3ccc(-c4ccc(O)c(OC)c4)cc23)c1 [Compound 48, 2-(6-(4-hydroxy-3-methoxyphenyl)quinazolin-4-ylamino)-4-methoxybenzoic acid] | 30.6% | –
14 | C#Cc1cccc(Nc2ncnc3ccc(-c4ccc(OC)cc4)cc23)c1 [Compound 151, N-(3-ethynylphenyl)-6-(4-methoxyphenyl)quinazolin-4-amine] | -5.4% | –
15 | COc1cc(-c2ccc3nccc(Nc4ccc(Cl)c(NS(C)(=O)=O)c4)c3c2)ccc1O [Compound 141, N-(2-chloro-5-(6-(4-hydroxy-3-methoxyphenyl)quinolin-4-ylamino)phenyl)methanesulfonamide] | 4.6% | –
16 | COc1cc(-c2ccc3ncnc(Nc4cc(NS(C)(=O)=O)ccc4Cl)c3c2)ccc1O [Compound 139, N-(4-chloro-3-(6-(4-hydroxy-3-methoxyphenyl)quinazolin-4-ylamino)phenyl)methanesulfonamide] | 25.8% | –
17 | COc1cc(-c2ccc3ncnc(Nc4cc(NS(C)(=O)=O)c(F)cc4F)c3c2)ccc1O [Compound 150, N-(2,4-difluoro-5-(6-(4-hydroxy-3-methoxyphenyl)quinazolin-4-ylamino)phenyl)methanesulfonamide] | 37.2% | –
18 | COc1cc(-c2ccc3ncc(C#N)c(Nc4cccc5[nH]ncc45)c3c2)ccc1O [Compound 135, 4-(1H-indazol-4-ylamino)-6-(4-hydroxy-3-methoxyphenyl)quinoline-3-carbonitrile] | 24% | –
19 | CCS(=O)(=O)Nc1ccc(-c2ccc3ncnc(Nc4ccccc4)c3c2)cc1 [Compound 24, N-(4-(4-(phenylamino)quinazolin-6-yl)phenyl)ethanesulfonamide] | 48.6% | IC50 (B-Raf): 1700 nM; IC50 (B-Raf (V600E)): 1810 nM

Row | SMILES | inhibition at 1 µM (B-Raf; 1.0 μM compound) | other results
20 | COc1cc(-c2ccc3ncnc(Nc4ccc(Cl)c(NS(C)(=O)=O)c4)c3c2)ccc1O [Compound 140, N-(2-chloro-5-(6-(4-hydroxy-3-methoxyphenyl)quinazolin-4-ylamino)phenyl)methanesulfonamide] | 24.3% | –
21 | CCNC(=O)Nc1ccc(-c2ccc3ncnc(Nc4ccccc4)c3c2)cc1 [Compound 12, 1-ethyl-3-(4-(4-(phenylamino)quinazolin-6-yl)phenyl)urea] | 18.2% | –
22 | COc1cc(-c2ccc3ncnc(Nc4ccc(C(=O)O)cc4)c3c2)ccc1O [Compound 57, 4-(6-(4-hydroxy-3-methoxyphenyl)quinazolin-4-ylamino)benzoic acid] | 4.8% | –
23 | COc1cc(-c2ccc3ncnc(Nc4ccccc4)c3c2)ccc1OC(=O)Nc1ccccc1 [Compound 7, 2-methoxy-4-(4-(phenylamino)quinazolin-6-yl)phenyl phenylcarbamate] | – | inhibition at 1 µM (B-Raf): 23.5%
24 | NC(=O)Nc1ccc(-c2ccc3ncnc(Nc4ccccc4)c3c2)cc1 [Compound 11, 1-(4-(4-(phenylamino)quinazolin-6-yl)phenyl)urea] | 19.9% | –
25 | Fc1ccc(Nc2ncnc3ccc(-c4ccc5[nH]ncc5c4)cc23)cc1Cl [Compound 142, N-(3-chloro-4-fluorophenyl)-6-(1H-indazol-5-yl)quinazolin-4-amine] | 23.3% | –
26 | O=S(=O)(Nc1ccc(-c2ccc3ncnc(Nc4ccccc4)c3c2)cc1)c1ccc(F)cc1 [Compound 70, 4-fluoro-N-(4-(4-(phenylamino)quinazolin-6-yl)phenyl)benzenesulfonamide] | -6.5% | –
27 | COc1cc(-c2ccc3ncnc(Nc4ccc5cc[nH]c5c4)c3c2)ccc1O [Compound 40, 4-(4-(1H-indol-6-ylamino)quinazolin-6-yl)-2-methoxyphenol] | 32.2% | –
28 | COc1cc(-c2ccc3ncnc(Nc4cccc5[nH]ccc45)c3c2)ccc1O [Compound 83, 4-(4-(1H-indol-4-ylamino)quinazolin-6-yl)-2-methoxyphenol] | 36.3% | –
29 | COc1cc(-c2ccc3ncnc(Nc4cccc(NS(=O)(=O)C(F)(F)F)c4)c3c2)ccc1O [Compound 65, 1,1,1-trifluoro-N-(3-(6-(4-hydroxy-3-methoxyphenyl)quinazolin-4-ylamino)phenyl)methanesulfonamide] | 40.4% | –
30 | COc1cc(-c2ccc3ncnc(Nc4c(C)ccc5[nH]ncc45)c3c2)ccc1O [Compound 155, 2-methoxy-4-(4-(5-methyl-1H-indazol-4-ylamino)quinazolin-6-yl)phenol] | 8.2% | –
31 | COc1ccc(Nc2ncnc3cc(OC)c(-c4ccc(O)c(OC)c4)cc23)cc1O [Compound 42, 4-(4-(3-hydroxy-4-methoxyphenylamino)-7-methoxyquinazolin-6-yl)-2-methoxyphenol] | 20.4% | –
32 | COc1cc(-c2cc3c(Nc4ccccc4)ncnc3cc2OC)ccc1O [Compound 30, 2-methoxy-4-(7-methoxy-4-(phenylamino)quinazolin-6-yl)phenol] | 10% | –
33 | COc1ccc(-c2ccc3ncnc(Nc4ccccc4)c3c2)cc1 [Compound 10, 6-(4-methoxyphenyl)-N-phenylquinazolin-4-amine] | 15.8% | –
34 | CCNC(=O)Oc1ccc(-c2ccc3ncnc(Nc4ccccc4)c3c2)cc1OC [Compound 9, 2-methoxy-4-(4-(phenylamino)quinazolin-6-yl)phenyl ethylcarbamate] | – | inhibition at 1 µM (B-Raf): 13.8%
35 | COc1cc(-c2ccc3ncnc(Nc4cccc(C(=O)O)c4)c3c2)ccc1O [Compound 32, 3-(6-(4-hydroxy-3-methoxyphenyl)quinazolin-4-ylamino)benzoic acid] | 34.7% | –
36 | c1ccc(Nc2ncnc3ccc(-c4ccccc4)cc23)cc1 [Compound 132, N,6-diphenylquinazolin-4-amine] | 22.4% | –
37 | O=S(=O)(Nc1ccc(-c2ccc3ncnc(Nc4ccccc4)c3c2)cc1)c1ccccc1 [Compound 28, N-(4-(4-(phenylamino)quinazolin-6-yl)phenyl)benzenesulfonamide] | 30.5% | –
